Measurements reported in US8993717B2, “Gadd45beta targeting agents” (Imperial Innovations Limited, priority 2009, dated 2015).
Square brackets hold non-standard residues; d marks the D form. Peptide text beside a SMILES is read from it. * marks the point of attachment. Cbz = O=C(OCc1ccccc1)*

What was measured:
[1] = system: CaCO2; test: CaCO2 assays; type: in vitro ADME; details: data not shown
[2] = target: T1, Gadd45β/MKK7 complex (Homo sapiens, UniProt O14733, S271D/T275D); test: Surface Plasmon Resonance, preformed Gadd45β/MKK7KD complex; type: binding
T1 construct: His6; made in house; host or cells: E. coli (MKK7KD)
T1 sequence (O14733 101-405 isoform O14733-3 S287D/T291D limits assumed): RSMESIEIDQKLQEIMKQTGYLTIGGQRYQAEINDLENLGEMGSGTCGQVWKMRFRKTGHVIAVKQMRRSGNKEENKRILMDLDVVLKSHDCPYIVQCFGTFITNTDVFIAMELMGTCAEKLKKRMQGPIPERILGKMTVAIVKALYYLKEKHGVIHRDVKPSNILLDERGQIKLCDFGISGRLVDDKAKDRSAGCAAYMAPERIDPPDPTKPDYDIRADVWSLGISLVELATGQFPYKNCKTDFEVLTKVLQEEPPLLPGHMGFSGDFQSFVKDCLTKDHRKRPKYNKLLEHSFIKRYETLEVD
Experimental: (§1) To determine how DTPs bind to the Gadd45 β/MKK7 complex, experiments were performed with a Biacore3000 SPR instrument (GE Healthcare, Milan, Italy), using 4-channels CM5 sensorchips (GE Healthcare, Milan, Italy). Full length human Gadd45β was prepared and purified as described in the reference by Tornatore L., et al. (2008). J Mol Biol; 378:97-111. […] The protein was purified to homogeneity by two subsequent steps of affinity chromatography (Ni-NTA support) and gel filtration (Superdex G75), and then characterized by SDS-PAGE, LC-MS to verify identity and purity, and by Circular Dichroism to assess folding.
(§2) MKK7KD was immobilized on the Biacore sensorchip via classical EDC/NHS coupling chemistry at pH 5 (protein pI, ˜9) at a flow rate of 5 uL/min An immobilization level of about 8000 Response Units was achieved. Gadd45β, which is an intrinsically acidic protein with a pI of about 4.5, was immobilized at pH 3.5 (6000 RU immobilization levels) on a separate channel. The residual reactive groups on both the Gadd45β and MKK7KD channels were finally inactivated by treatment with ethanolamine. On another channel the same procedure of activation with EDC/NHS and inactivation with ethanolamine was performed. […]

[3] = target: T2, Gadd45β (Homo sapiens, UniProt O75293); test: Surface Plasmon Resonance, immobilized Gadd45β; type: binding; details: 1 nM to 10 μM
T2 construct: made in house
T2 sequence (O75293 1-160): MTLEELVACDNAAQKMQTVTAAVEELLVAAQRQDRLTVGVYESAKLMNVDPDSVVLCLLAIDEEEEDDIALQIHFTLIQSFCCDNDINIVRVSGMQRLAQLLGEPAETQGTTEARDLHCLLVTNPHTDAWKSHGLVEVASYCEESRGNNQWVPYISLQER
Experimental: as §1, §2

[4] = target: T3, kinase domain of MKK7 (MKK7KD) (Homo sapiens, UniProt O14733, S271D/T275D); test: Surface Plasmon Resonance, immobilized MKK7KD; type: binding; details: 1 nM to 10 μM
T3 construct: His6; made in house; host or cells: E. coli
T3 sequence (O14733 101-405 isoform O14733-3 S287D/T291D): T1 sequence (O14733 101-405 isoform O14733-3 S287D/T291D limits assumed)
Experimental: as §1, §2

[5] = Solubility; type: physicochemical; details: result in words
[6] = system: 22 resistant tumour cell lines; test: [3H]thymidine incorporation assay in a panel of 22 resistant tumour cell lines; details: 100 μM, 144 hours
Experimental: In these latter assays, the effects of Z-DTPs, Ac-DTPs and Z-LTPs on the survival/proliferation of tumour cell lines was investigated by measuring DNA synthesis using standard tritiated thymidine ([^3H]thymidine; [^3H]-TdR) uptake assays. In the analyses shown, cells were incubated for 24, 72, 120 or 144 hrs at 37° C. in the presence or absence of control or bioactive tetrapeptides, as indicated, then subjected to an additional incubation for 18 hrs with [^3H]-TdR (0.037 MBq/well, equivalent to […]). Cells were subsequently harvested onto glass fibre filter mats using a 96-well plate automated cell harvester, after which scintillation fluid was added, and [^3H]thymidine incorporation measured by liquid scintillation spectroscopy on a beta counter. The results are expressed as the percentages of the counts per minute (c.p.m.) (directly correlating with the extent of cell proliferation) measured with tetrapeptide-treated cultures relative to the c.p.m. measured with the corresponding cultures incubated with medium alone (untreated cells). All experiments were performed in triplicate.

CC(=O)N[C@H](Cc1ccc(O)cc1)C(=O)N[C@H](CCC(=O)O)C(=O)N[C@H](CCCNC(=N)N)C(=O)N[C@H](Cc1ccccc1)C(N)=O [DTP2, Acetyl-(D-Tyr)-(D-Glu)-(D-Arg)-(D-Phe)-NH2] (Ac-[dY][dE][dR][dF]-NH2)
cellular permeability [1]: low cellular permeability

CC(=O)N[C@H](Cc1ccc(O)cc1)C(=O)N[C@H](CCCNC(=N)N)C(=O)N[C@H](Cc1ccccc1)C(N)=O [Compound 17, Ac-D-Tyr-D-Arg-D-Phe-NH2] (Ac-[dY]-[dR]-[dF]-NH2)
effect on preformed Gadd45β/MKK7KD complex ([2]; injected at 10 nM or 100 nM during dissociation phase): induced a rapid dissociation of the Gadd45β/MKK7KD complex | binding to preformed Gadd45β/MKK7KD complex ([2]; injected at higher concentrations (e.g. 1 μM)): dose-response binding and dissociation curves were recorded | binding to Gadd45β in isolation [3]: does not bind | binding to MKK7KD in isolation [4]: does not bind

N=C(N)NCCC[C@@H](NC(=O)[C@@H](CCC(=O)O)NC(=O)[C@@H](Cc1ccc(O)cc1)NC(=O)OCc1ccccc1)C(=O)N[C@H](Cc1ccccc1)C(N)=O [Compound 9, Z-D-Tyr-D-Glu-D-Arg-D-Phe-NH2] (Cbz-[dY][dE][dR][dF]-NH2)
solubility [5]: high solubility | cytotoxicity in resistant tumour cell lines [6]: no cytotoxicity
